Earlier results as cited in US5668009A, “Methods for treating cotton-containing fabrics with CBH I enriched cellulase” (Genencor International, Inc., priority 1995, dated 1997).

Experiments:
[1] = target: exo-cellobiohydrolase (CBH) type components, as characterized for CBH I and CBH II from Trichoderma reesei; settings: competitive inhibition; general characterisation of CBH components; read-out: Ki (cellobiose), competitive inhibition
[2] = target: β-Glucosidase (BG) components of fungal cellulase; settings: competitive inhibition; general characterisation of BG components; read-out: Ki (glucose), competitive inhibition

For OC[C@H]1O[C@@H](O[C@H]2[C@H](O)[C@@H](O)C(O)O[C@@H]2CO)[C@H](O)[C@@H](O)[C@@H]1O (some centres unmarked) [cellobiose], the Ki [1] is given as ~1000 µM.

For OC[C@H]1OC(O)[C@H](O)[C@@H](O)[C@@H]1O (some centres unmarked) [glucose], the Ki [2] is listed as ~1000 µM.
